Test results reported in publication PMC9234961 (Journal of Medicinal Chemistry, 2022).
Converted amounts (≈) assume the structure as drawn. “And” between values parts separate entries of the source, which are not always exact repeats. Equal values may be shown once. Read-outs that look alike come from different tables or passages of the source.

Experiments:
[1] = target: endogenous BCL6 in OCI-Ly1 cells (Homo sapiens, UniProt P41182); experiment: cell-based; settings: for MSD degrader assay [OCI-Ly1] Dmax: mean maximal degradation of BCL6; for MSD degrader assay [OCI-LY1] pDC50 mean: mean of replicates; for degradation of BCL6 (in words): OCI-Ly1 MSD assay
[2] = Microsomal clearance assay (MLM); type: in vitro ADME; settings: female, CD1, pH 7.4; mouse liver microsomes, 1 μM compound
Method: (§1) 6. Supplementary experimental: in vitro DMPK assays
(§2) 6.1 Microsomal clearance assay
(§3) Microsomal clearance was determined in female CD1 mice, female Sprague–Dawley rats, and mixed gender human liver microsomes obtained from BioIVT (Peterborough, U.K.) following incubation of 1 μM compound at 37 °C in 0.5 mg/mL microsomal protein, 3 mmol/L MgCl2, 1 mmol/L NADPH, 2.5 mmol/L and 10 mmol/L phosphate buffer (pH 7.4) (all purchased from Sigma-Aldrich, Gillingham, U.K). Reactions were started by addition of the cofactors following 10 min preincubation of microsomes with test compound and were terminated at −1, 0, 5, 10, 15, and 30 min with three volumes of ice-cold methanol containing internal standard. Samples were centrifuged at 2800g for 30 min at 4 °C and the supernatants analyzed.
(§4) Control incubations were prepared as above with omission of cofactors. Compound measurements were […]
(§5) separation with a 3 min gradient of 0.1% formic acid in methanol on a Kinetex C18, 50 × 2.1 mm 2.6 μm UPLC column (Phenomenex, Macclesfield, UK). […]

[3] = Microsomal clearance assay (HLM); type: in vitro ADME; settings: both sexes, pH 7.4; human liver microsomes, 1 μM compound
Method: as §1, §2, §3, §4, §5

[4] = Microsomal clearance assay (RLM); type: in vitro ADME; settings: female, Sprague-Dawley, pH 7.4; rat liver microsomes, 1 μM compound
Method: as §1, §2, §3, §4, §5

[5] = logD7.4 assay (Chrom log D method); type: physicochemical; settings: pH 7.4, read-out: Measured logD7.4
Method: Calibration, validation and in-house compounds were prepared at 1mM in 10% DMSO / 90% Trizma solution (100mM Trizma in 75/25 methanol/water). 3 µL standard injections (with needle wash) of all calibration, validation and in-house samples were made onto a Phenomenex Luna C8 column (3µm, 100 x 4.6 mm, 100A, Phenomenex, Torrence, USA). Chromatographic separation at 30°C was carried out using […]
2 mL/min. The gradient was held at 0:100 water:organic for 0.8 minutes, then returned to the starting conditions of 95:5 water:organic for 0.2 minutes. The column was re-equilibrated for 5 minutes at the […]

[6] = NMR solubility assay; type: physicochemical; settings: read-out: Aq. Sol.
Method: 4. Supplementary experimental: physicochemical assays
0.5 mM TCEP, 10% D2O) was pipetted into the same well and mixed by up-down pipetting 3 times to create […]
It was then separated by centrifugation (1000 rpm
The plate was then sealed and incubated at room temperature for 20 hours, […]
165 µL of the supernatant was transferred to a 3 mm NMR tube (Bruker, Part No. Z112272) using liquid handler SamplePro Tube SJ S (Bruker). The concentration of the solubilized compound in solubility sample is measured by quantitative 1H-NMR using a single external standard (200 µM caffeine (Sigma, C1778) in PBS (pH 7.4) with 1% DMSO-d6).
The detail of the NMR method is as following: NMR data was collected on a Bruker Avance Neo 600 spectrometer equipped with a 5 mm TCI-CryoProbe. The 1H spectrum was referenced to the internal deuterated solvent. The operating frequency for 1H was 600 MHz. All NMR data were acquired at the […]
1H-NMR spectrum was acquired using a Bruker standard 1D lc1pngppsf2 pulse sequence with 32 scans.
The sweep width was 6.2 ppm with O1P set to 8.8 ppm, and the FID contained 16k time-domain data points. Relaxation delay was set to 20 sec. Water signal was suppressed. […]

[7] = in vitro; type: in vitro ADME; settings: PAMPA; pH 7.4, 10 µM, 16 h at 30 °C
[8] = in vitro; type: in vitro ADME; settings: bovine; fraction unbound in OCI-Ly1 DC50 assay medium; read-out: fu,media
[9] = target: T1, human BCL6 BTB domain (Homo sapiens, UniProt P41182); experiment: biochemical
Method: (§6) Assays were performed in a 384-well black Proxiplate (Perkin Elmer) containing 1 nM Trx-6xHis-BCL6 (in
(§7) anti-6xHis-Terbium cryptate (CisBio Bioassays, France), in assay buffer (25 mM Hepes pH8, 100 mM NaCl,
(§8) 0.05% Tween20, 0.5 mM TCEP, 0.05% bovine serum albumin). Test compounds in DMSO or DMSO alone
(§9) were added to the wells using an ECHO550 acoustic dispenser (Labcyte Inc) to give the appropriate test
(§10) concentration in 0.7% v/v DMSO final. After 2 hours incubation at room temperature the plate was read
(§11) The % inhibition at each concentration was calculated by normalising FRET ratio to the
(§12) appropriate high (DMSO with all reagents) and low (DMSO without BCL6) controls. IC50 values were
(§13) determined using GraphPad Prism 6.0 or Dotmatics (Bishops Stortford, UK) software by fitting the
(§14) normalised data to a sigmoidal four-parameter logistic fit equation.

[10] = target: T1, human BCL6 BTB domain; settings: for BCL6 TR-FRET pIC50 mean: mean of replicates
Method: as §6, §7, §8, §9, §10, §11, §12, §13, §14

[11] = OCI-Ly1, read-out: MSD degrader assay [OCI-LY1] Dmax individual replicates, single replicate values
[12] = OCI-Ly1, read-out: MSD degrader assay [OCI-Ly1] Dmax, mean maximal degradation of BCL6, OCI-Ly1 cells, 2 h
[13] = read-out: MSD degrader assay [OCI-LY1] DC50 individual replicates, single replicate values
[14] = read-out: MSD degrader assay [OCI-Ly1] DC50, geometric mean, OCI-Ly1 cells, 2 h incubation
[15] = BCL6 TR-FRET IC50 individual replicates, single replicate values
[16] = reversed-phase HPLC on Phenomenex Luna C8 column
[17] = kinetic solubility by NMR in HEPES buffer at pH 8, 4% DMSO
[18] = read-out: BCL6 TR-FRET IC50, geometric mean, BCOR-AF633 peptide, 2 h incubation
[19] = read-out: BCL6 TR-FRET IC50 individual replicates, single replicate values

Row | Structure (SMILES) | Dmax [1, 11] [%] | Dmax [1, 12] [%] | MSD degrader assay [OCI-Ly1] Dmax ([1]; OCI-Ly1 cells, 2 h) [%] | MSD degrader assay [OCI-LY1] pDC50 mean [1] | DC50 [1, 13] | DC50 [1, 14] | MSD degrader assay [OCI-LY1] Dmax individual replicates ([1]; single replicate values) | IC50 [9, 15] | degradation of BCL6 (in words) [1] | microsomal CLint at 0.5 h, 1 µM [2] [µL/min/mg] | chromatographic logD [5, 16] | solubility kinetic at 20 h [6, 17] [µM] | BCL6 TR-FRET pIC50 mean [10] | IC50 [10, 18] [µM] | IC50 [10, 19] | other results
1 | C[C@H]1C[C@@H](O)CN(c2ncc(Cl)c(Nc3ccc4c(c3)n(CCC(C)(C)O)c(=O)n4C)n2)C1 (relative stereo) [compound 5, 5-((5-Chloro-2-(3-hydroxy-5-methylpiperidin-1-yl)pyrimidin-4-yl)amino)-3-(3-hydroxy-3-methylbutyl)-1-methyl-1,3-dihydro-2H-benzo[d]imidazol-2-one] | 91 | 88.8 | 89 | 7.4626 | 0.066 µM and 0.018 µM | 0.035 µM and 0.0345 µM | 86.653% | 0.101 µM and 0.0996 µM and 0.0943 µM and 0.0862 µM |  |  |  |  |  |  |  | DC50 ([1]; read-out: Calculated free DC50 [OCI-Ly1], DC50 corrected with fu,media): 0.0124 µM; microsomal CLint at 1 μM [2]: 122 µL/min/mg; microsomal CLint at 1 μM [3]: 28 µL/min/mg; microsomal CLint at 1 μM [4]: 14 µL/min/mg; chromatographic logD [5]: 2.3; solubility kinetic at 20 h ([6]; pH 8, aqueous buffer, kinetic from dmso stock): 40 µM (≈ 19 µg/mL); Papp [7]: 230 nm/s; fraction unbound [8]: 0.37; IC50 ([9]; BCL6 TR-FRET IC50, geometric mean, BCOR-AF633 peptide, 2 h incubation): 0.095 µM; IC50 ([9]; BCL6 TR-FRET pIC50 mean, mean of replicates): 0.0951 µM
2 | C[C@@H]1CCCN(c2ncc(Cl)c(Nc3ccc4c(c3)c3c(c(=O)n4C)OCC(F)(F)[C@H](C4CC4)N3)n2)C1 [15b, (S)-10-((5-Chloro-2-((R)-3-methylpiperidin-1-yl)pyrimidin-4-yl)amino)-2-cyclopropyl-3,3-difluoro-7-methyl-1,2,3,4-tetrahydro-[1,4]oxazepino[2,3-c]quinolin-6(7H)-one] | 73.4 | 72.1 | 72 | 7.4874 | 0.0194 µM and 0.0396 µM and 0.0448 µM | 0.0326 µM | 70.6% and 72.2% | 0.0276 µM and 0.0226 µM | degraders of BCL6 | 204 | 5 | 0 | 7.6089 | 0.0246 | 0.0238 µM | 
3 | CC(=O)N[C@H]1C[C@@H](C)CN(c2ncc(Cl)c(Nc3ccc4c(c3)c3c(c(=O)n4C)OCC(F)(F)[C@H](C4CC4)N3)n2)C1 [10b, N-((3S,5R)-1-(5-Chloro-4-(((S)-2-cyclopropyl-3,3-difluoro-7-methyl-6-oxo-1,2,3,4,6,7-hexahydro-[1,4]oxazepino[2,3-c]quinolin-10-yl)amino)pyrimidin-2-yl)-5-methylpiperidin-3-yl)acetamide] | < 30 | < 30 | > 30 |  | > 2 µM | > 2 µM |  | 0.0035 µM and 0.0026 µM and 0.0025 µM | nondegrading isomer | 134 | 2.8 | 15 (≈ 8.82 µg/mL) | 8.5388 | 0.0029 | 0.003 µM | 
4 | C[C@H]1C[C@@H](N(C)C)CN(c2ncc(Cl)c(Nc3ccc4c(c3)c3c(c(=O)n4C)OCC(F)(F)[C@H](C4CC4)N3)n2)C1 [11a, (S)-10-((5-Chloro-2-((3R,5S)-3-(dimethylamino)-5-methylpiperidin-1-yl)pyrimidin-4-yl)amino)-2-cyclopropyl-3,3-difluoro-7-methyl-1,2,3,4-tetrahydro-[1,4]oxazepino[2,3-c]quinolin-6(7H)-one] | 53.6 |  | 56 | 8.0099 | 0.0083 µM and 0.0089 µM and 0.0127 µM | 0.0098 µM | 60.7% and 54.9% | 0.0039 µM and 0.003 µM | potently degrading isomer | 876 | 3.3 | 60 (≈ 34.4 µg/mL) | 8.4757 | 0.0033 | 0.0032 µM and 0.0033 µM | 
5 | Cn1c(=O)c2c(c3cc(Nc4nc(N5CCC(F)(F)[C@H](CO)C5)ncc4Cl)ccc31)N[C@@H](C1CC1)C(F)(F)CO2 [9b, (S)-10-((5-Chloro-2-((S)-4,4-difluoro-3-(hydroxymethyl)piperidin-1-yl)pyrimidin-4-yl)amino)-2-cyclopropyl-3,3-difluoro-7-methyl-1,2,3,4-tetrahydro-[1,4]oxazepino[2,3-c]quinolin-6(7H)-one] |  | 44.7 | ~45 |  | > 2 µM | > 2 µM | 56.1% and 58.2% and 19.9% | 0.0034 µM and 0.0038 µM and 0.005 µM | partial degradation | 129 | 3.2 | 6.8 (≈ 3.96 µg/mL) | 8.3907 | 0.0041 | 0.0042 µM | 
6 | C[C@@H]1C[C@H](N(C)C)CN(c2ncc(Cl)c(Nc3ccc4c(c3)c3c(c(=O)n4C)OCC(F)(F)[C@H](C4CC4)N3)n2)C1 [11b, (S)-10-((5-Chloro-2-((3S,5R)-3-(dimethylamino)-5-methylpiperidin-1-yl)pyrimidin-4-yl)amino)-2-cyclopropyl-3,3-difluoro-7-methyl-1,2,3,4-tetrahydro-[1,4]oxazepino[2,3-c]quinolin-6(7H)-one] | < 30 | < 30 | > 30 |  | > 2 µM | > 2 µM |  | 0.0033 µM and 0.003 µM and 0.0048 µM | nondegrading isomer | 681 | 3.3 | 58 (≈ 33.3 µg/mL) | 8.4399 | 0.0036 |  | 
7 | C[C@H]1CCCN(c2ncc(Cl)c(Nc3ccc4c(c3)c3c(c(=O)n4C)OCC(F)(F)[C@H](C4CC4)N3)n2)C1 [15a, (S)-10-((5-chloro-2-((S)-3-methylpiperidin-1-yl)pyrimidin-4-yl)amino)-2-cyclopropyl-3,3-difluoro-7-methyl-1,2,3,4-tetrahydro-[1,4]oxazepino[2,3-c]quinolin-6(7H)-one] | 88.4 | 85.5 | 86 | 8.1987 | 0.016 µM and 0.0017 µM and 0.0093 µM | 0.0063 µM | 83.3% and 85.0% | 0.048 µM and 0.0295 µM and 0.0344 µM | degraders of BCL6 | 568 | 4.9 | 0 | 7.4377 | 0.0365 |  | 
